Source: US5972980A, “Method for treating and preventing inflammation and atherosclerosis” (Warner-Lambert Company, priority 1999, dated 1999)
Read-outs that look alike come from different tables or passages of the source. One block for each molecule: values may come before it.

How the values were obtained:
[1] = target: T1, rabbit reticulocyte 15-LO (Oryctolagus cuniculus, UniProt P12530); test: 15-LO inhibition, rabbit reticulocyte 15-LO with linoleic acid substrate, HPLC method of Auerbach et al.; format: biochemical
T1 construct: rabbit reticulocyte 15-LO; from tissue; host or cells: rabbit reticulocytes
T1 sequence (P12530 1-663): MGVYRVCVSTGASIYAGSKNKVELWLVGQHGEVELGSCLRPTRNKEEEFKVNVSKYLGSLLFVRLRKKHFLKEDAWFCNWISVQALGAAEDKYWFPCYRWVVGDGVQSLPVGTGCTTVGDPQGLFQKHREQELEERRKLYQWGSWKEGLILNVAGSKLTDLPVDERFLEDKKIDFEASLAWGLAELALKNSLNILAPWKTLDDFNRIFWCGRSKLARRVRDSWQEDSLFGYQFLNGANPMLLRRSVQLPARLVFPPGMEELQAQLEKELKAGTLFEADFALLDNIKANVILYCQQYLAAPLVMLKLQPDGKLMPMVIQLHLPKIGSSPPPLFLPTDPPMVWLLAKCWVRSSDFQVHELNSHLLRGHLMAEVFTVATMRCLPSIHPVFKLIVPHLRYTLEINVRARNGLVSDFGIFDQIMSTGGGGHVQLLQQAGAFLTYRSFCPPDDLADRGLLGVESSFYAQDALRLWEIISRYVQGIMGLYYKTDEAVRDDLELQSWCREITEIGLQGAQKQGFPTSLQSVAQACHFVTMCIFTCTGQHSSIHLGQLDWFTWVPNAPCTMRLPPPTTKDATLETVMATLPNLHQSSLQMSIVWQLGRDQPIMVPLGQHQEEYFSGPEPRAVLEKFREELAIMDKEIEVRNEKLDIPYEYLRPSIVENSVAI
Description: Two in vitro assays were utilized, both utilizing rabbit reticulocyte 15-LO, and linoleic acid as substrate, to enzymatically produce a peroxide oxidation product known as 13(S)-HPODE. N-Benzoyl leucomethylene blue was utilized as a calorimetric reagent for detection and quantification of the peroxide formation. Also, HPLC was utilized to quantify the oxidation following incubation at 4° C. for 10 minutes.

[2] = target: T2, 5-LO enzyme (Homo sapiens, UniProt P09917); test: 5-LO enzyme inhibition; format: biochemical
T2 sequence (P09917 1-674): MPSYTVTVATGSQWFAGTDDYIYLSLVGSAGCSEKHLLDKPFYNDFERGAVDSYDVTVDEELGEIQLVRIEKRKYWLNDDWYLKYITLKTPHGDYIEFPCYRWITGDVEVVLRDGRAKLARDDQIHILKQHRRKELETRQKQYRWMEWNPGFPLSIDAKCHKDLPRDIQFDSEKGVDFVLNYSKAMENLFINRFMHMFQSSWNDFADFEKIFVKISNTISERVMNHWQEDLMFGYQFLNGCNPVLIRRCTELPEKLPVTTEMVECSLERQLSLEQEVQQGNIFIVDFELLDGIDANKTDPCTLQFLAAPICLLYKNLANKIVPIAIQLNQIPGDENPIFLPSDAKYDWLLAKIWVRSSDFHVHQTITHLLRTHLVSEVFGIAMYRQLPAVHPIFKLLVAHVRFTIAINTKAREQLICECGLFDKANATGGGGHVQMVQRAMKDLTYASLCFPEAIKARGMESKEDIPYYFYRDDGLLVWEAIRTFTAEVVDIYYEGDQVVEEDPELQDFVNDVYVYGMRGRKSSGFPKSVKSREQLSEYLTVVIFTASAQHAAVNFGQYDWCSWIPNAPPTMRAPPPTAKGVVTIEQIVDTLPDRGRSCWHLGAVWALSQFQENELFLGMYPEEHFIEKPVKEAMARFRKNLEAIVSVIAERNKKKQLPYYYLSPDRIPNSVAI

[3] = system: atherosclerotic lesions in cholesterol-fed New Zealand White rabbits; test: Atherosclerosis in cholesterol-fed rabbits, 12-week study (aortic lesion coverage, aortic cholesterol content); format: in vivo, rabbit; conditions: 350 mg/kg/day in food, 12 weeks
Excerpt: As further evidence of 15-LO inhibitors being effective to prevent and treat inflammation and atherosclerosis in animals, one representative compound has been extensively evaluated in cholesterol-fed rabbits over a 12-week period.
Specific pathogen-free New Zealand White rabbits (≈2.5 kg) were obtained from Myrtle's Rabbitry (Thompson Station, Tenn.). The animals were fed a standard laboratory diet (Ralston Purina, St. Louis, Mo.) and were allowed to become acclimatized for 7 days before initiation of the study, at which time two groups of rabbits (n=10 each) were begun on a diet enriched with cholesterol (0.25% wt/wt), peanut oil (3% wt/wt), and coconut oil (3% wt/wt), with a small amount of applesauce mixed into the food to enhance palatability. This diet was designed to produce a modest hypercholesterolemic response. The control group received no additional treatment. […] Rabbits were permitted access to 40 g of food at ≈12 hour intervals via automated feeders, and diet intake was monitored every day such that the animals received 175 mg/kg/bid. Water was available ad libitum. Body weights were measured at regular intervals throughout the 12-week study. Blood samples were obtained at the indicated intervals for determination of hematocrit and plasma lipid concentrations.
Rabbits were euthanized by an overdose of sodium pentobarbital (150 mg/kg^-1) and exsanguinated via the abdominal aorta. Aortas were removed from the valve to the ileal bifurcation, opened to expose the intima, and photographed with a Polaroid camera. By use of these photographs, the areas of grossly discernible atherosclerosis were manually integrated on a digitizing pad and calculated with SigmaScan (Jandel Scientific). Aortas were visually subdivided into three areas: arch (aortic valve to first intercostal), thoracic aorta (first intercostal to diaphragm area), and abdominal aorta (diaphragm to ileal bifurcation). In addition to extracting aortas, body tissues were surveyed for indications of adverse reactions.
Weighed segments of each aortic region (arch, thoracic, and abdominal) were extracted. Esterified and unesterified cholesterol content of aortic tissue were determined by gas chromatography using 5-α-cholestane as an internal standard.

[4] = Table 1, HPLC method, read-out: 15-LO IC50
[5] = Table 1, read-out: 5-LO (concentration to inhibit 50% of 5-LO activity)
[6] = Table 2, benzimidazoles, read-out: 15-LO IC50
[7] = Table 2, benzimidazoles, read-out: 5-LO IC50
[8] = Table 4, indoles, read-out: 15-LO IC50
[9] = Table 4, indoles, read-out: 5-LO IC50
[10] = read-out: 5-LO inhibitory activity IC50

SMILES: c1ccc2c(c1)[nH]c1c3cc4c(cc3[s+]cc21)CCCC4
IC50 [1, 4]: 0.5 to 2 µM | IC50 [2, 5]: > 32 µM

SMILES: Clc1ccc2[nH]c(-c3ccccc3)nc2c1
IC50 [1, 6]: 0.7 µM | IC50 [2, 7]: > 10 µM

SMILES: O=C(Nc1cccc(Cl)c1)Sc1c[nH]c2ccccc12
IC50 [1, 8]: 4 µM | IC50 [2, 9]: > 10 µM

SMILES: O=C(Cc1c[nH]c2ccccc12)Nc1ccccc1
IC50 [1, 8]: 1.5 µM | IC50 [2, 9]: > 10 µM

SMILES: Clc1ccc2c(c1)Nc1c(ccc3ccccc13)S2
IC50 ([1]; Table 5, read-out: 15-LO IC50): 2 µM | IC50 ([2]; Table 5, read-out: 5-LO IC50): > 30 µM

SMILES: c1ccc2c(c1)ccc1c3ccccc3[nH]c21
IC50 [1]: 1.5 µM | IC50 ([2]; Table 5, read-out: 5-LO IC50): > 10 µM

SMILES: Clc1ccc(-c2nc3ccc(Cl)cc3[nH]2)cc1 [2-(4-chlorophenyl)-5-chlorobenzimidazole]
15-LO to 5-LO ratio of activities ([1]; 15-LO versus 5-LO): greater than 10 | IC50 [1, 6]: 0.65 µM | IC50 [2, 7]: > 10 µM | IC50 [2, 10]: > 10 µM

SMILES: CCCCCC#CCC#CCC#CCC#CCCCC(=O)O [CH3 (CH2)3 (CH2 --C≡C--)4 (CH2)3 --COOH]
IC50 ([1]; Table 5, read-out: 15-LO IC50): 0.75 µM | IC50 ([2]; Table 5, read-out: 5-LO IC50): > 10 µM

SMILES: Clc1ccc2[s+]cc3c4ccccc4[nH]c3c2c1 [drawing 19 (R2=H, R3=H, R4=Cl, R5=H, R8=H)]
IC50 [1, 4]: 12 µM

SMILES: c1ccc2c(c1)[nH]c1c3ccccc3[s+]cc21 [drawing 19 (R2=H, R3=H, R4=H, R5=H, R8=H)]
IC50 [1, 4]: 1 to 4 µM

SMILES: O=[N+]([O-])c1ccc2[s+]cc3c4ccccc4[nH]c3c2c1 [drawing 19 (R2=H, R3=H, R4=NO2, R5=H, R8=H)]
IC50 [1, 4]: 0.48 µM | IC50 [2, 5]: > 10 µM

SMILES: c1ccc2c(c1)c[s+]c1c3ccccc3[nH]c21 [drawing 20 (R2=H, R3=H, R4=H, R5=H, R8=H)]
IC50 [1, 4]: 3.8 µM | IC50 [2, 5]: 22 µM

SMILES: c1csc(-c2csc(-c3nc4ccccc4[nH]3)n2)c1 [drawing 26 (R2=H, R3=H, R10=H, R11=drawing 27)]
IC50 [1, 6]: 1.5 µM | IC50 [2, 7]: > 10 µM

SMILES: COc1ccc(/C=C/C(=O)c2cccs2)cc1 [drawing 31 (R2=H, R3=4-OCH3, Het=drawing 32)]
IC50 ([1]; Table 3, styrenes, read-out: 15-LO IC50): 1.6 µM | IC50 ([2]; Table 3, styrenes, read-out: 5-LO IC50): > 10 µM

The next lines start with results.

IC50 [1, 4]: 26 µM
SMILES: COc1ccc2c(c1)[nH]c1c3ccccc3[s+]cc21

IC50 [1, 4]: 0.7 µM | IC50 [2, 5]: > 9.6 µM
SMILES: COc1ccc2[nH]c3c4ccccc4[s+]cc3c2c1

IC50 [1, 4]: 4.5 µM | IC50 [2, 5]: > 50 µM
SMILES: COc1ccc2c3c([nH]c2c1)-c1ccccc1SC3

IC50 [1, 4]: 0.6 µM | IC50 [2, 5]: > 10 µM
SMILES: COc1ccc2[nH]c3c(c2c1)CSc1ccccc1-3

IC50 [1, 4]: 4 µM | IC50 [2, 5]: > 50 µM
SMILES: COc1ccc2[nH]c3c(c2c1)COc1ccccc1-3

IC50 [1, 4]: > 25 µM
SMILES: COc1ccc2[nH]c3c4ccccc4ncc3c2c1

IC50 [1, 4]: > 25 µM
SMILES: COc1ccc2[nH]c3c(c2c1)CCc1ccccc1-3

IC50 [2, 5]: > 100 µM | IC50 [2, 10]: > 100 µM
SMILES: c1ccc2c(c1)SCc1c-2[nH]c2ccccc12 [Compound A, 6,11-dihydro[1]benzothiopyrano[4,3-b]-indole]
cholesterol esters, abdominal region ([3]; abdominal (control about 0.6)): no detectable cholesterol esters | lesion coverage, abdominal region ([3]; abdominal aorta (control 5%)): about 1% | unesterified cholesterol, thoracic and abdominal regions ([3]; about the same as control): 0.7-0.8 mg/g tissue wet weight | lesion coverage of intima, arch area ([3]; aortic arch (control about 15%)): no lesion coverage | unesterified cholesterol, arch region ([3]; arch (control about 1.4)): about 0.8 mg/g | cholesterol esters, arch region ([3]; arch (control about 2)): no detectable cholesterol esters | cholesterol esters, thoracic region ([3]; thoracic (control none)): no detectable cholesterol esters | lesions, thoracic region ([3]; thoracic aorta): No detectable lesions

IC50 [1, 4]: 1.9 µM
SMILES: Cc1ccc2[s+]cc3c4ccccc4[nH]c3c2c1 [drawing 19 (R2=H, R3=H, R4=CH3, R5=H, R8=H)]

IC50 [1, 4]: 1 to 4 µM
SMILES: Cc1ccc2c(c1)[s+]cc1c3ccccc3[nH]c21 [drawing 19 (R2=H, R3=H, R4=H, R5=CH3, R8=H)]

IC50 [1, 4]: > 25 µM
SMILES: Cc1[s+]c2ccccc2c2[nH]c3ccccc3c12 [drawing 19 (R2=H, R3=H, R4=H, R5=H, R8=CH3)]
